Read-outs that look alike come from different tables or passages of the source. Blank lines part the entries; values can stand above or below the compound they belong to.
Experiments:
mTRPA1-S876V/T877L = mTRPA1-S876V/T877L (Mus musculus, UniProt Q8BLA8, S876V/T877L); format: cell-based
hTRPA1 [1] = target: T1, hTRPA1 (Homo sapiens, UniProt O75762); experiment: FLIPR calcium assay, wild type hTRPA1; format: cell-based
hTRPA1-dTM5 [2] = target: T2, hTRPA1-dTM5 (Homo sapiens / Drosophila melanogaster, UniProt O75762+Q7Z020); format: cell-based
mTRPA1 [3] = target: T3, mTRPA1 (Mus musculus, UniProt Q8BLA8); conditions: read-out: IC50, inhibition of MO-induced mTRPA1 activity
hTRPA1 [4] = target: T1, hTRPA1; experiment: Whole-cell patch-clamp, HEK293T cells expressing hTRPA1; format: cell-based; conditions: 250 μM menthol; at +120 mV; n = 11
mTRPA1-hTM5-6 = mTRPA1-hTM5-6 (Mus musculus, UniProt Q8BLA8, A900P/A924S/A946S/D923E/F870L/F897L/F930L/G878V/G942A/I945V/L908I/L929Y/M949I/T903S/T940S/V893I/Y936H); experiment: FLIPR calcium assay, chimera mTRPA1-hTM5-6; format: cell-based, mouse / human
hTRPA1-FGFATLIAM = hTRPA1-FGFATLIAM (Homo sapiens, UniProt O75762, I905L/I946M/L867F/L894F/P897A/S900T/S943A/V875G/V942I); experiment: FLIPR calcium assay, mutant hTRPA1-[…]; format: cell-based
fugu-TRPA1 = experiment: FLIPR calcium assay, fugu-TRPA1; format: cell-based, Takifugu
hTRPA1-dTM5 [5] = target: T2, hTRPA1-dTM5; experiment: Whole-cell patch-clamp, HEK293T cells expressing hTRPA1-dTM5; format: cell-based; conditions: 250 μM menthol
dTRPA1-mN = dTRPA1-mN (Mus musculus / Drosophila melanogaster, UniProt Q7Z020+Q8BLA8); format: cell-based
mTRPA1-dTM5 = experiment: Whole-cell patch-clamp, HEK293T cells expressing mTRPA1-dTM5; format: cell-based, mouse / Drosophila melanogaster; conditions: 50 μM menthol
mTRPA1 [6] = target: T3, mTRPA1; experiment: cell-based
mTRPA1 [7] = target: T3, mTRPA1; experiment: Whole-cell patch-clamp, HEK293T cells expressing mTRPA1; format: cell-based; conditions: 100 μM MO in the presence of 500 μM menthol; n = 7
mosquito-TRPA1 = experiment: FLIPR calcium assay, mosquito-TRPA1; format: cell-based, Anopheles gambiae
dTRPA1 = target: T4, dTRPA1 (Drosophila melanogaster, UniProt Q7Z020); experiment: Whole-cell patch-clamp, HEK293T cells expressing dTRPA1; format: cell-based; conditions: at +120 mV
T4 sequence (Q7Z020 1-1197): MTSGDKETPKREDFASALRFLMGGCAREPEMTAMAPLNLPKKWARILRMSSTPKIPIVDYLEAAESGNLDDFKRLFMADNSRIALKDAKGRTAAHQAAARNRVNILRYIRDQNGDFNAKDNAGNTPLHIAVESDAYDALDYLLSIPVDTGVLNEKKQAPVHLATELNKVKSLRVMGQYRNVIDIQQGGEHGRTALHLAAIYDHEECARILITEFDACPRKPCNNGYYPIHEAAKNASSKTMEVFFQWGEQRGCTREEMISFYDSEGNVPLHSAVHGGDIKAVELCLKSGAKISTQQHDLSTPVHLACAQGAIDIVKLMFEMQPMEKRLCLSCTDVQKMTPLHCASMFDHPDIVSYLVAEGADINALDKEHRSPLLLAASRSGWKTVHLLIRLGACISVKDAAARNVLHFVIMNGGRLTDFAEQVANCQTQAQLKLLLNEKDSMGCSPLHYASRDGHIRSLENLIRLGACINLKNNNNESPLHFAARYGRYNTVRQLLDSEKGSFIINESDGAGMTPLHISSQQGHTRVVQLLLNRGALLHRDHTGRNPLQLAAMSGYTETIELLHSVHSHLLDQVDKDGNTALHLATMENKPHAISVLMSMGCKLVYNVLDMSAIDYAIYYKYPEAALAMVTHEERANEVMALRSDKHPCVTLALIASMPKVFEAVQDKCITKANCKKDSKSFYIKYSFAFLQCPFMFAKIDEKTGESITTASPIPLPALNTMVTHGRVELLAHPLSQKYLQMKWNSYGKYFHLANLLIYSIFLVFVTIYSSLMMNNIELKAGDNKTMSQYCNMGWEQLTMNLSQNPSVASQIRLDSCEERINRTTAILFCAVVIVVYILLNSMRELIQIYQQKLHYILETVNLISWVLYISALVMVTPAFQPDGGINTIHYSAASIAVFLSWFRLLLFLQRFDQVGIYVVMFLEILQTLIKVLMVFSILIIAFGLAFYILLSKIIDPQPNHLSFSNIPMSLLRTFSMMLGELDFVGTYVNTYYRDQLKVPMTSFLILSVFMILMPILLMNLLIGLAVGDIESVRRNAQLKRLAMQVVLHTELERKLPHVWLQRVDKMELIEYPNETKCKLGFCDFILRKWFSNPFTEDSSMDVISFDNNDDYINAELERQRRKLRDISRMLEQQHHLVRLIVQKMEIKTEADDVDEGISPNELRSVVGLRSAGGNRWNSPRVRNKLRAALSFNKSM

hTRPA1-mTM5-6 = hTRPA1-mTM5-6 (Homo sapiens, UniProt O75762, A939G/E920D/H933Y/I890V/I905L/I946M/L867F/L894F/L927F/P897A/S900T/S921A/S937T/S943A/V875G/V942I/Y926L); experiment: FLIPR calcium assay, chimera hTRPA1-mTM5-6; format: cell-based, human / mouse
hTRPA1-V875G = hTRPA1-V875G (Homo sapiens, UniProt O75762, V875G); experiment: FLIPR calcium assay, mutant hTRPA1-V875G; format: cell-based
Chain of hTRPA1-V875G (O75762 whole entry V875G): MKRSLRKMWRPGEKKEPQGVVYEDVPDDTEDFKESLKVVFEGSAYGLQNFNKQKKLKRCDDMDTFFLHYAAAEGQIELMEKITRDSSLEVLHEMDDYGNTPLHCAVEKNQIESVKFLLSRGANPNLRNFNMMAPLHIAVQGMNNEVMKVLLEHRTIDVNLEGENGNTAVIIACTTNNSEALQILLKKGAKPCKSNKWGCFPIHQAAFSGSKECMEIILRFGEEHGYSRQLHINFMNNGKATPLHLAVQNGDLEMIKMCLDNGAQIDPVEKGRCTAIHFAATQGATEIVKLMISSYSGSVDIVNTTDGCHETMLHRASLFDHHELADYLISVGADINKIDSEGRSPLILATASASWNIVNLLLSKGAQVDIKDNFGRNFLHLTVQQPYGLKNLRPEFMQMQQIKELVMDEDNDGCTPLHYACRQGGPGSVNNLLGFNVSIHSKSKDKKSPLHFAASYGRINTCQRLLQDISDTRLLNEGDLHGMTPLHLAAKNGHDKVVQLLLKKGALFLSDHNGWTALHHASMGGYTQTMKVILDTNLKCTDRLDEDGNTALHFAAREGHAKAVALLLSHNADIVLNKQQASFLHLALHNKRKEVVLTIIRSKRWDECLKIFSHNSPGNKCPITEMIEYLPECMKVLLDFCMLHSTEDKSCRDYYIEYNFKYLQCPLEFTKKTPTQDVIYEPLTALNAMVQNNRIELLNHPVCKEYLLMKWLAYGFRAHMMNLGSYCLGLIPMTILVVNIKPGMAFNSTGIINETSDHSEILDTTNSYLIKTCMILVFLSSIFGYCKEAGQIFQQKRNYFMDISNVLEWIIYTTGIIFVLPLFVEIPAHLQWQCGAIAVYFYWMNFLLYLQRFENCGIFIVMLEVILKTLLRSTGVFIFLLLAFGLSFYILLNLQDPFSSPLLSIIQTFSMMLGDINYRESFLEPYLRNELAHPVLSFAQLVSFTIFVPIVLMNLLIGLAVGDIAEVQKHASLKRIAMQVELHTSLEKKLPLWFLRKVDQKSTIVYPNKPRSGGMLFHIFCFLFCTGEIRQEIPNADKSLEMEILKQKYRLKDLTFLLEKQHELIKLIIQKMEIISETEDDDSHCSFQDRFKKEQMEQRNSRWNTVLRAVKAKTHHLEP

T3 sequence (Q8BLA8 whole entry): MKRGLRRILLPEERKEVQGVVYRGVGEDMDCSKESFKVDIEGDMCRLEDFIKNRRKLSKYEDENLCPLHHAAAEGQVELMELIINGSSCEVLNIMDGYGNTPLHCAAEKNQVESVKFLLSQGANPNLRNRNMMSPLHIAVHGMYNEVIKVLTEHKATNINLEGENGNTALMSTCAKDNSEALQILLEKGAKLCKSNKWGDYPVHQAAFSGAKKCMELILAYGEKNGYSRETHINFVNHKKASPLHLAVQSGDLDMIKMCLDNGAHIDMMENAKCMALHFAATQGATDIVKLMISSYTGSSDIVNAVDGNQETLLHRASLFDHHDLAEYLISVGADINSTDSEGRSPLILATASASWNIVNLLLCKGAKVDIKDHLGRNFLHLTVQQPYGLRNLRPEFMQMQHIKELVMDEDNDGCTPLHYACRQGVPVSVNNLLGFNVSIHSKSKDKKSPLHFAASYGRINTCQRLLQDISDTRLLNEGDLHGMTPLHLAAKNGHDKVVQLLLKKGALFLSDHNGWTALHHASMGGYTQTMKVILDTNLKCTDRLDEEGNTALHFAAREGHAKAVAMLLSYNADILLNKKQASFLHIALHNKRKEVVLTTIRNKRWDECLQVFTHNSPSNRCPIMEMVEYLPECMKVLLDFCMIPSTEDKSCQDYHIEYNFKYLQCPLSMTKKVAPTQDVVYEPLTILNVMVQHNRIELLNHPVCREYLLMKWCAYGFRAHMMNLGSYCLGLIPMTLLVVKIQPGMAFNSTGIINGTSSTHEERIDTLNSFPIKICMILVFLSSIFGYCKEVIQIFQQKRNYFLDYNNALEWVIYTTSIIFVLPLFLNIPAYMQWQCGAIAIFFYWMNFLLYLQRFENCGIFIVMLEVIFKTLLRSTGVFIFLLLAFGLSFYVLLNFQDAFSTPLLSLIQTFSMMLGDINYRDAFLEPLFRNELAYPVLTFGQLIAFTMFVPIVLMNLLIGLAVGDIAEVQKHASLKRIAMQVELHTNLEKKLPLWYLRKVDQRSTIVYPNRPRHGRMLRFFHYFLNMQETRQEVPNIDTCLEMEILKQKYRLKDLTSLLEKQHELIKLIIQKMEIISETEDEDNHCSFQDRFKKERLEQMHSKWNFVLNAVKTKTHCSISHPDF
T1 sequence (O75762 whole entry): as the sequence (O75762 whole entry V875G) above, with G875V counted along it
Chain of mTRPA1-hTM5-6 (Q8BLA8 1-1125 with the stated changes): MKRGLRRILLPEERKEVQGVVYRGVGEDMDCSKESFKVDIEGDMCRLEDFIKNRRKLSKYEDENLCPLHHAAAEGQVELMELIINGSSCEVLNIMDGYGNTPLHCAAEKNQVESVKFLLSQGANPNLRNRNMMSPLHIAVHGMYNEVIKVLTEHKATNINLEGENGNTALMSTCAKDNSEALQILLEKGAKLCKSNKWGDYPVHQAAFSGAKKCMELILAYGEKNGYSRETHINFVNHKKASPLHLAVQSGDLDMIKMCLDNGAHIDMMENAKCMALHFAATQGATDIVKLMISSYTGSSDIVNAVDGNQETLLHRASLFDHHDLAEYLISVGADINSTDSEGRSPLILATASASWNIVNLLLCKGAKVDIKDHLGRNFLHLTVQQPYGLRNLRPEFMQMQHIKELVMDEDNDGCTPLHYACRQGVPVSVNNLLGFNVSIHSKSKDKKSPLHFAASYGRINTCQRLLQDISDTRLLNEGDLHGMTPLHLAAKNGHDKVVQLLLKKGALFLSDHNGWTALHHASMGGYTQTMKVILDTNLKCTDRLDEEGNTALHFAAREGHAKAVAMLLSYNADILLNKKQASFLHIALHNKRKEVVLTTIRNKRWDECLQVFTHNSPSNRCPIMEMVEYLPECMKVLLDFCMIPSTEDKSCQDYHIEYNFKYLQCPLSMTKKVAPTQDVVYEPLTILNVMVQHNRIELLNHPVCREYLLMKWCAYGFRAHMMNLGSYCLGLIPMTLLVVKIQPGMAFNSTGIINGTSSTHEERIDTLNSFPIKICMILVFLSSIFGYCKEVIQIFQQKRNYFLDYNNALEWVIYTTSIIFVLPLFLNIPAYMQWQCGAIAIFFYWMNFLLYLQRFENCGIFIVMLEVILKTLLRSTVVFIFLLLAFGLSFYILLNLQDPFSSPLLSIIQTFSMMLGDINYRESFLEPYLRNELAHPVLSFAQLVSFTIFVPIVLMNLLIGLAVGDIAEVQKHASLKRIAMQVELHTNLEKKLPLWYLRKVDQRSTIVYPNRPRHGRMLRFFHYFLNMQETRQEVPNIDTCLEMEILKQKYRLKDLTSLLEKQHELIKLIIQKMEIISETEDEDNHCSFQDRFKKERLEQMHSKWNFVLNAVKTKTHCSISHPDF
Chain of dTRPA1-mN (Q8BLA8 1-720, one chain of several): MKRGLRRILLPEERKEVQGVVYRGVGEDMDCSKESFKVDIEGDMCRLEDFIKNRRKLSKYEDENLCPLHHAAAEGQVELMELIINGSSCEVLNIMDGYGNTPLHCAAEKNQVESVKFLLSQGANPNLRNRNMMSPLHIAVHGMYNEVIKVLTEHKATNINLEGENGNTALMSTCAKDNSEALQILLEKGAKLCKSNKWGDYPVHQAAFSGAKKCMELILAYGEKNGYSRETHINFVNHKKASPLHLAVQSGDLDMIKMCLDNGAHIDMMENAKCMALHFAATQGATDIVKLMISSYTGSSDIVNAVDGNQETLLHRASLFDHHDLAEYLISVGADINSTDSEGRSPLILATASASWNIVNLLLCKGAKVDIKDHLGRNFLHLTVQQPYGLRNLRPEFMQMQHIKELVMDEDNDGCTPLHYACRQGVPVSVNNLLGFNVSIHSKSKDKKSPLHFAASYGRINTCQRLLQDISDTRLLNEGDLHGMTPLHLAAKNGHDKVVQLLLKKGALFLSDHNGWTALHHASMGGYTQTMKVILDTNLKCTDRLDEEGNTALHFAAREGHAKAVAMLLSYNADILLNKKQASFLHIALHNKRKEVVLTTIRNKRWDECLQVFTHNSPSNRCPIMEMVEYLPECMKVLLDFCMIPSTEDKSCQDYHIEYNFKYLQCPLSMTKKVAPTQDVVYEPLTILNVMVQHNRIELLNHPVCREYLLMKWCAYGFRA
Chain of mTRPA1-S876V/T877L (Q8BLA8 whole entry S876V/T877L): as the sequence (Q8BLA8 whole entry) above, with S876V, T877L counted along it
Chain of hTRPA1-FGFATLIAM (O75762 whole entry L867F/V875G/L894F/P897A/S900T/I905L/V942I/S943A/I946M): as the sequence (O75762 whole entry V875G) above, with L867F, L894F, P897A, S900T, I905L, V942I, S943A, I946M counted along it

SMILES: CC(=NO)/C(C)=C\c1ccc(Cl)cc1 [AP18, (Z)-4-(4-chlorophynyl)-3-methylbut-3-en-2-oxime]
inhibitory effect on MO-induced mTRPA1-S876V/T877L activity (mTRPA1-S876V/T877L): totally abolished
IC50 (hTRPA1 [1]; read-out: hTRPA1 IC50 (Inhibition)): 0.6 ± 0.17 µM
hTRPA1-dTM5 IC50 (Inhibition) (hTRPA1-dTM5 [2]): No inhibition
IC50 (mTRPA1 [3]): 0.69 ± 0.09 µM

SMILES: CC(C)=CCC/C(C)=C/CC/C(C)=C/CSc1ccccc1C(=O)O [FTS, Farnesyl thiosalicylic acid]
EC50 (hTRPA1 [1]; read-out: hTRPA1 EC50 (Activation)): 7.3 ± 1.1 µM
hTRPA1-dTM5 EC50 (Activation) (hTRPA1-dTM5 [2]): No activation

IC50 (hTRPA1 [1]): 12.9 ± 2.67 µM
SMILES: CC(C)c1ccc(NC(=O)Cn2cnc3c2c(=O)n(C)c(=O)n3C)cc1 [HC030031, 2-(1,3-dimethyl-2,6-dioxo-1,2,3,6-tetrahydro-7H-purin-7-yl)-N-(4-isopropylphenyl)acetamide]

SMILES: CC(C)[C@@H]1CC[C@@H](C)C[C@H]1O [Menthol, (-)-Menthol]
whole cell current density evoked in hTRPA1 cells (hTRPA1 [4]): 59.0 ± 10.2 pA/pF
block of the response of hTRPA1 to 100 μM MO (hTRPA1 [1]): did not block
EC50 (mTRPA1-hTM5-6): 43.9 ± 6.4 µM
inhibition of MO-evoked mTRPA1-hTM5-6 activity (mTRPA1-hTM5-6; FLIPR, 100 μM MO): not significantly inhibited
IC50 (hTRPA1-FGFATLIAM): 36.6 ± 9 µM
menthol sensitivity of fugu-TRPA1 (fugu-TRPA1): not sensitive
activation of hTRPA1-dTM5 current (hTRPA1-dTM5 [5]): completely abolished
menthol effect at dTRPA1-mN (dTRPA1-mN): ineffective
activation of mTRPA1-dTM5 current (mTRPA1-dTM5): completely abolished
IC50 (mTRPA1 [6]): 73.4 ± 11.5 µM
MO-induced mTRPA1 currents at +120 mV, normalized to currents elicited at +180 mV (mTRPA1 [7]): 16 ± 7%
menthol sensitivity of mosquito-TRPA1 (mosquito-TRPA1): not sensitive
change in evoked current in dTRPA1 cells (dTRPA1; 25-100 μM menthol, n = 7): -0.53 ± 0.3 pA/pF
activation of dTRPA1 current (dTRPA1; 250-500 μM menthol, 3 min of recording): ineffective
IC50 (hTRPA1-mTM5-6): 71 ± 16.5 µM
hTRPA1-dTM5 EC50 (Activation) (hTRPA1-dTM5 [2]; FLIPR, responses normalized to 100 μM MO): No activation
IC50 (hTRPA1-V875G): 119 ± 16.5 µM

SMILES: Cl.Cl.Cl.Cl.Cl.Cl.N.N.N.N.N.N.N.N.N.N.N.N.N.N.[O-2].[O-2].[Ru+3].[Ru+3].[Ru+4] [Ruthenium Red, ruthenium red]
IC50 (hTRPA1-dTM5 [2]; read-out: hTRPA1-dTM5 IC50 (Inhibition)): 0.48 ± 0.03 µM

Source: article PMC2678945 (The Journal of neuroscience : the official journal of the …, 2008)
